The values that follow come from ChEMBL document CHEMBL5678818, “Discovery of potent SOS1 inhibitors that block RAS activation via disruption of the RAS-SOS1 interaction” (Proc Natl Acad Sci U S A, 2019).

Test [1] concerns the target Receptor-type tyrosine-protein kinase FLT3 (Homo sapiens) (UniProt P36888). The test can be described thus: Inhibition of autoinhibited FLT3 (unknown origin) assessed as residual activity at 1000 nM by KINOMEscan analysis relative to control.
Test [2] concerns Tyrosine-protein kinase ABL1 (Homo sapiens), P00519 [Q252H]. In words: Inhibition of nonphosphorylated ABL1 Q252H mutant (unknown origin) assessed as residual activity at 1000 nM by KINOMEscan analysis relative to control.
For test [3], the target named is Mitogen-activated protein kinase kinase kinase kinase 4 (Homo sapiens) (UniProt O95819). In words: Inhibition of MAP4K4 (unknown origin) assessed as residual activity at 1000 nM by KINOMEscan analysis relative to control.
For test [4], the target named is Cyclin-dependent kinase 9 (Homo sapiens) (UniProt P50750). In words: Inhibition of CDK9 (unknown origin) assessed as residual activity at 1000 nM by KINOMEscan analysis relative to control.
In test [5] the target is T1, Tyrosine-protein kinase ITK/TSK (Homo sapiens) (UniProt Q08881).
T1 sequence (whole entry): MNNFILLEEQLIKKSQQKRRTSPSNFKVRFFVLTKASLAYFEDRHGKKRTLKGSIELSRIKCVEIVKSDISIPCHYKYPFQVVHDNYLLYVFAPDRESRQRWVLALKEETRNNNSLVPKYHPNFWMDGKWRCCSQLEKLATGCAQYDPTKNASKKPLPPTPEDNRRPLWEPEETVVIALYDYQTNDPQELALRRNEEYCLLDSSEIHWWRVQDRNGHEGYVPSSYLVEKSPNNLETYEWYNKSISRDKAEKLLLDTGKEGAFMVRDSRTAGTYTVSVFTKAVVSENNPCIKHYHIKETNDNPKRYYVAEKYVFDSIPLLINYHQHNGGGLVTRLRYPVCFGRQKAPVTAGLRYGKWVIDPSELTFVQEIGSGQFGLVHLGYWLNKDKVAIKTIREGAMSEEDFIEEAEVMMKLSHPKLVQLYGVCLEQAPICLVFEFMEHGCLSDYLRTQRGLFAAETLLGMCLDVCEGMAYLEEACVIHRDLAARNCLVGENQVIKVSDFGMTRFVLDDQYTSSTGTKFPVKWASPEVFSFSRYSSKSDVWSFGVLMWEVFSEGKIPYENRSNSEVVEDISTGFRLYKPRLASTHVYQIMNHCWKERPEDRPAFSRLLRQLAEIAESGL
In words: Inhibition of ITK (unknown origin) assessed as residual activity at 1000 nM by KINOMEscan analysis relative to control.

Test [6] deals with Serine/threonine-protein kinase SIK1 (Homo sapiens) (UniProt P57059). The test can be described thus: Inhibition of SIK (unknown origin) assessed as residual activity at 1000 nM by KINOMEscan analysis relative to control.
Test [7] concerns the target Mitogen-activated protein kinase kinase kinase 12 (Homo sapiens) (UniProt Q12852). In words: Inhibition of DLK (unknown origin) assessed as residual activity at 1000 nM by KINOMEscan analysis relative to control.
The target in test [8] is Phosphatidylinositol 4-phosphate 5-kinase type-1 alpha (Homo sapiens) (UniProt Q99755). In words: Inhibition of PIP5K1A (unknown origin) assessed as residual activity at 1000 nM by KINOMEscan analysis relative to control.
Test [9] concerns the target Phosphorylase b kinase gamma catalytic chain, skeletal muscle/heart isoform (Homo sapiens) (UniProt Q16816). The test can be described thus: Inhibition of PHKG1 (unknown origin) assessed as residual activity at 1000 nM by KINOMEscan analysis relative to control.
Test [10] addresses Homeodomain-interacting protein kinase 2 (Homo sapiens) (UniProt Q9H2X6). The test can be described thus: Inhibition of HIPK2 (unknown origin) assessed as residual activity at 1000 nM by KINOMEscan analysis relative to control.
Test [11] has as its target Vascular endothelial growth factor receptor 2 (Homo sapiens) (UniProt P35968). The test can be described thus: Inhibition of VEGFR2 (unknown origin) assessed as residual activity at 1000 nM by KINOMEscan analysis relative to control.
The target of test [12] is Activated CDC42 kinase 1 (Homo sapiens) (UniProt Q07912). In words: Inhibition of TNK2 (unknown origin) assessed as residual activity at 1000 nM by KINOMEscan analysis relative to control.
Test [13] deals with Activin receptor type-2A (Homo sapiens) (UniProt P27037). In words: Inhibition of ACVR2A (unknown origin) assessed as residual activity at 1000 nM by KINOMEscan analysis relative to control.
In test [14] the target is Cyclin-dependent kinase 7 (Homo sapiens) (UniProt P50613). The test can be described thus: Inhibition of CDK7 (unknown origin) assessed as residual activity at 1000 nM by KINOMEscan analysis relative to control.

Chain of Receptor-type tyrosine-protein kinase FLT3 (Homo sapiens) (P36888 whole entry): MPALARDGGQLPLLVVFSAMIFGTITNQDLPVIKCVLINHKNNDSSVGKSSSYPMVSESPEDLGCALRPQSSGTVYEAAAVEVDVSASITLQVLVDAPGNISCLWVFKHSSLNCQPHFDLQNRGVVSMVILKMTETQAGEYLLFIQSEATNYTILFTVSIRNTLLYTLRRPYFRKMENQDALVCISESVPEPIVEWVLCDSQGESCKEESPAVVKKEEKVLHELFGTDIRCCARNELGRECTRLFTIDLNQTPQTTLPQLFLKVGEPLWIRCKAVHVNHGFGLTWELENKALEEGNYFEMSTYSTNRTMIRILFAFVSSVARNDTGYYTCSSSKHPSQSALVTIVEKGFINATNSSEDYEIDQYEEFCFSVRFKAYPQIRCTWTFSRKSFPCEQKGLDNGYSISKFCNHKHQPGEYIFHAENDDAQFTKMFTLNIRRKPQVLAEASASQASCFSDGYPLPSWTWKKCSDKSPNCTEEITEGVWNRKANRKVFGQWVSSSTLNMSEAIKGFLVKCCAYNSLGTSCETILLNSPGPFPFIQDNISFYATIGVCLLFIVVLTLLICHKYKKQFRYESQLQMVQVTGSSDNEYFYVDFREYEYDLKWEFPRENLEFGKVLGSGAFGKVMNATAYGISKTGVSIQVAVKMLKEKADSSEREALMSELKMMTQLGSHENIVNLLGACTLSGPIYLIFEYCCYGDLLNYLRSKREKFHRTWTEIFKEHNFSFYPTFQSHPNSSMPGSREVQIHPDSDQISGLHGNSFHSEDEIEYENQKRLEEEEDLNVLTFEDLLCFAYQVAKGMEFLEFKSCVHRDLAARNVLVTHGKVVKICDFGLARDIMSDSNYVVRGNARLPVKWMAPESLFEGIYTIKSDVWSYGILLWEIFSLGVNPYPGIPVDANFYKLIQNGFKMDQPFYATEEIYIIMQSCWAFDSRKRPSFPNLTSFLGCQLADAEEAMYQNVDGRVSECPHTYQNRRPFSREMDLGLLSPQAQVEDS
Chain of Homeodomain-interacting protein kinase 2 (Homo sapiens) (Q9H2X6 whole entry, looked up): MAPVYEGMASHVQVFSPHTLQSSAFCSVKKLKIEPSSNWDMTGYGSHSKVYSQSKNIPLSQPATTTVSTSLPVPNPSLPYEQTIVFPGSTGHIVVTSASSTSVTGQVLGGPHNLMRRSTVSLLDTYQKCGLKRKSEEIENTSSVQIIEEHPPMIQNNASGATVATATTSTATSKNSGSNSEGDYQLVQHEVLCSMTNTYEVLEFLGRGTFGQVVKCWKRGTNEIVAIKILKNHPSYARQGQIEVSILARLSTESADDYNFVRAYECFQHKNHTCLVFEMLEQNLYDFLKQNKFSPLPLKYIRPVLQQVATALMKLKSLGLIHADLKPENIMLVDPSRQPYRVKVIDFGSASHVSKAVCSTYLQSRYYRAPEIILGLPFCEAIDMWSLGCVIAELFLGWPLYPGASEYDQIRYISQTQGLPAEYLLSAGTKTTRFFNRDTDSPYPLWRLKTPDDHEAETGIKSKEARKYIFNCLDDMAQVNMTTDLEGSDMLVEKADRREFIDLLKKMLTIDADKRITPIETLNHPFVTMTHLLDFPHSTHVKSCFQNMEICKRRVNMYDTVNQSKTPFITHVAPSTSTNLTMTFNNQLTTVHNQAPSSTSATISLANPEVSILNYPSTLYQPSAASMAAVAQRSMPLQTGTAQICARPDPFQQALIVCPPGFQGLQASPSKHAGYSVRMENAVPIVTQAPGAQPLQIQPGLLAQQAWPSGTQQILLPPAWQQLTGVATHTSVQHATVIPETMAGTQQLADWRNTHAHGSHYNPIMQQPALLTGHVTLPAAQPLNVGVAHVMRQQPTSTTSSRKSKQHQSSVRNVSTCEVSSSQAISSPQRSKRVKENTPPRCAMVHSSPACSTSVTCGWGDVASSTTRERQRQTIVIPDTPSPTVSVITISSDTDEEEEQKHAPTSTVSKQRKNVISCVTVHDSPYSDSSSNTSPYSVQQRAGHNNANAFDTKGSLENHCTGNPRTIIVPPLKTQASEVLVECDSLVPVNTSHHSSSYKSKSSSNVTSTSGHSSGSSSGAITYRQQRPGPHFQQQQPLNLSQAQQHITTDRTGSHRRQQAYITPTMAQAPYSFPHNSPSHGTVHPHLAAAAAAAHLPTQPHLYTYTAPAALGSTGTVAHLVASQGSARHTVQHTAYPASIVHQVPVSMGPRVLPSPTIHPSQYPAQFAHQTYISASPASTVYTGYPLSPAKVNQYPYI
Chain of Activin receptor type-2A (Homo sapiens) (P27037 whole entry): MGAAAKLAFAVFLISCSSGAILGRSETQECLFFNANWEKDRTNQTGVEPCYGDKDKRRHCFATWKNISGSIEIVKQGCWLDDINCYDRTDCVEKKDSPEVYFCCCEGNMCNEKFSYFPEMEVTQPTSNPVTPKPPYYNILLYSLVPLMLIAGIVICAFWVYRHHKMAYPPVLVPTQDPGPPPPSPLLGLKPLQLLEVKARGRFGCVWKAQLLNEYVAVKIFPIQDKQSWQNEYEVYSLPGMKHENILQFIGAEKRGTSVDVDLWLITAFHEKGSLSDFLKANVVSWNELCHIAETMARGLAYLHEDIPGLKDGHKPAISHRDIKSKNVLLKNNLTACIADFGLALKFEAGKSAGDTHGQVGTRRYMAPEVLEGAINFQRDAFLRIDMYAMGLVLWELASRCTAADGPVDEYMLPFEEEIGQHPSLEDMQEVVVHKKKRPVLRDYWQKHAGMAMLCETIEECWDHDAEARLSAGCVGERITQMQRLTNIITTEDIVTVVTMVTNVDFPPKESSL
Chain of Activated CDC42 kinase 1 (Homo sapiens) (Q07912 whole entry, looked up): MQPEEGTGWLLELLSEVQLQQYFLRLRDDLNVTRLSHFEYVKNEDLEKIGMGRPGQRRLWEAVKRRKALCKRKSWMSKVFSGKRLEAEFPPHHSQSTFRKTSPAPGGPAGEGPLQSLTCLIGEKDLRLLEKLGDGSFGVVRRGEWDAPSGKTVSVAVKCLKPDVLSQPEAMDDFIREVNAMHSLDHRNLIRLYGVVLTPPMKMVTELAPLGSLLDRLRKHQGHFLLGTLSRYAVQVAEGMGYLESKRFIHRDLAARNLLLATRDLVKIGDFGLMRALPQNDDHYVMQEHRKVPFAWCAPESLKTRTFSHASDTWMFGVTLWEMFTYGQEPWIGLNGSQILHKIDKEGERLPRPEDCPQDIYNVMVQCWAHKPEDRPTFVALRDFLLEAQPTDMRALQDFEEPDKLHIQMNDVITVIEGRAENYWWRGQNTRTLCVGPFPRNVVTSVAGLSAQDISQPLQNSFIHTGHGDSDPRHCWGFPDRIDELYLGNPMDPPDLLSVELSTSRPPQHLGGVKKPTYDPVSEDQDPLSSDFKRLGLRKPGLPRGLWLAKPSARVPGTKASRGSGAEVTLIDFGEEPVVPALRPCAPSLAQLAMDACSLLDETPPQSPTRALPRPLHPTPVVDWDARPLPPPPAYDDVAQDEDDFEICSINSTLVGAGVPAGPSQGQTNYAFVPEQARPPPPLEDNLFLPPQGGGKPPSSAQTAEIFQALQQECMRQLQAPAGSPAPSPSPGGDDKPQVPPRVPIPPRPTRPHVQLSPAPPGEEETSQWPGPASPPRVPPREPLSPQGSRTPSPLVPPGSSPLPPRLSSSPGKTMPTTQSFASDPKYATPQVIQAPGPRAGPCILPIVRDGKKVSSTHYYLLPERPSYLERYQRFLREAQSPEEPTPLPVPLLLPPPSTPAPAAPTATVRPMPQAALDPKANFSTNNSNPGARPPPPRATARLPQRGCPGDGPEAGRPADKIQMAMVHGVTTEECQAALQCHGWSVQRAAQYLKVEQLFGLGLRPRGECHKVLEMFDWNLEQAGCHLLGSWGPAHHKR
Chain of Vascular endothelial growth factor receptor 2 (Homo sapiens) (P35968 whole entry): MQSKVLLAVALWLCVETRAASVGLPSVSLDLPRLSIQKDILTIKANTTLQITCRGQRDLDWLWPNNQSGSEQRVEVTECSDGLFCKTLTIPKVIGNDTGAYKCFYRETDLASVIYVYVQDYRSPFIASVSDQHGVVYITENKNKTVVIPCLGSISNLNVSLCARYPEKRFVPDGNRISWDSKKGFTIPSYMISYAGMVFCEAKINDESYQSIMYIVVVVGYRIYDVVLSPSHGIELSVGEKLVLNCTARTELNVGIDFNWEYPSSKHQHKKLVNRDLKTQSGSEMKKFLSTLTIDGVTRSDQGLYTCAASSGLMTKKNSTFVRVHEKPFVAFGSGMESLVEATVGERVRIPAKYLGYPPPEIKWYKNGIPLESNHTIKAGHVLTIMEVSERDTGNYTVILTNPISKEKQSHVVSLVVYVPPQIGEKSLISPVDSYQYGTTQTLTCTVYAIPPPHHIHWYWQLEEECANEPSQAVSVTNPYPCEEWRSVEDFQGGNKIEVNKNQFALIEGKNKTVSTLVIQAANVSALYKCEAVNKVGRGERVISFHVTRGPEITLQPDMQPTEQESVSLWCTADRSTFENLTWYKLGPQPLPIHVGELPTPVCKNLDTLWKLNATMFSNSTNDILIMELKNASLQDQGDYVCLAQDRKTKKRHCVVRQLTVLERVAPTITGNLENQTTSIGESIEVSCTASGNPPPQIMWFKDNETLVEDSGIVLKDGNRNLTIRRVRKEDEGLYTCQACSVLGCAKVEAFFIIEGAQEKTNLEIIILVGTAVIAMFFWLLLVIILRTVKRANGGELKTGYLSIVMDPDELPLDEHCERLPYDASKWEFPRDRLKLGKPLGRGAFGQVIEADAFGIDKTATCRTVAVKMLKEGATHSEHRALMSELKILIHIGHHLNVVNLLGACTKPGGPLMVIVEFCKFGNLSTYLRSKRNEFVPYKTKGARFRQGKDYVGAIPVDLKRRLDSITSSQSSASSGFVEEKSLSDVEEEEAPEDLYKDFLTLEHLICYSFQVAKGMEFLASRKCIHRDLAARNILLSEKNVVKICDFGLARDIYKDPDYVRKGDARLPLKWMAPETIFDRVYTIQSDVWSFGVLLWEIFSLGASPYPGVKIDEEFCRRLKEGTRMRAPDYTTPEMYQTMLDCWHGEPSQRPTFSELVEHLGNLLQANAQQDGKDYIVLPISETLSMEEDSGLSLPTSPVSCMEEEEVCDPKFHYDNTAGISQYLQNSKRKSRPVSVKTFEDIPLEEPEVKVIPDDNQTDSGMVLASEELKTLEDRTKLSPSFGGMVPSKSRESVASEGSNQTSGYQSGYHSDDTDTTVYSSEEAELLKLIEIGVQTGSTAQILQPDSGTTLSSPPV

For `COc1cc2nc(C)nc(N[C@H](C)c3cccc(-c4cn[nH]c4)c3)c2cc1OC`, the Activity was found to be 100% in [1]; 45% in test [2]; 98% in test [3]; 95% in [4]; 67% in test [5]; 65% in test [6]. Besides, the Activity was determined as 95% in test [7]; 93% in test [8]; 100% in [9]; 100% in [10]; 100% in test [11]; 70% in test [12]. Besides, the Activity came to 90% in test [13] and 92% in test [14].
In the case of `COc1cc2ncnc(N[C@H](C)c3cccc4ccccc34)c2cc1OC`, the Activity in test [1] was 87%; in [2], 100%; in test [3], 100%; in test [4] it was 95%; in test [5], 100%; in test [6] it was 98%. Besides, the Activity in test [7] was determined as 92%; in test [8], 90%; in [9] it was 100%; in test [10], 98%; in test [11], 78%; in test [12] it was 100%. The values for the Activity in [13] and in test [14] were 100% and 87%, respectively.
